Data published in ChEMBL document CHEMBL3507680, “University of Dundee, Gates Library screen for HepG2 cell viability”.

Test: Human HepG2 cell viability assay in 384 well format
Assay type: toxicity, cell-based
Set-up: dose 125 nL, time 70.5 hour; concentration not given beside the values
Conditions: HepG2 cells, read-out: Inhibition

Compound	cytotoxicity at 70.5 h [%]
NCCC(=O)N1CCC2(CC1)CN(C(=O)c1ccc(Cl)cc1)CCO2	-12.1
NCCC(=O)N1CCC2(CC1)CN(C(=O)Cc1ccc(Cl)cc1)CCO2	-14.3
CN(C)C(=O)C1CCc2nnc(C(C)(C)C)n21 (centres undefined)	-3.32
CN(C)C(=O)c1cc(-c2ccc(S(C)(=O)=O)cc2)c2cnn(C)c2n1	-7.12
Cc1cc(C(=O)NCc2ccc(F)cc2)c2c(C3CCNC3)noc2n1 (centres undefined)	-7.85
CC1(C(=O)NCc2cc(F)cc(F)c2)CCOCC1	-6.71
O=C(NC1CC1)C1CCc2nnc(C3CC3)n21 (centres undefined)	-10.1
O=C1CC2(CCN(C(=O)c3ccccn3)C2)Nc2ccccc2N1 (centres undefined)	-14.7
c1c[nH]c2nc(C3CCNC3)nc-2c1 (centres undefined)	-17.5
COC(=O)CNC(=O)c1nc(-c2ccccc2OC)c2cnccn12	-11.4
O=C1NC2(Cc3ccccc31)CN(CC1CCOCC1)C2	25.2
Cn1nc(C2CCNCC2)c2c(C(=O)NC3CC3)cc(C3CC3)nc21	15
Cn1nc(C2CCNC2)c2c(C(=O)NC3CC3)cc(C3CC3)nc21 (centres undefined)	17.5
CC(=O)N1CC2(CCCN2Cc2ccc(Cl)cc2)Cc2ccccc21 (centres undefined)	31.4
CC(C)NC(=O)C1CCc2nnc(CNC(=O)c3ccc(Cl)cc3Cl)n21 (centres undefined)	1.45
CN(C)C(=O)C1CCc2nnc(CNC(=O)c3ccc(Cl)cc3Cl)n21 (centres undefined)	2.11
CC(C)(C)CN1CCCC12Cc1ccccc1CNC2=O (centres undefined)	-7.71
CC(C)CCN1CCCC12Cc1ccccc1CNC2=O (centres undefined)	-7.7
CS(=O)(=O)N1Cc2ccccc2CC2(CCN(Cc3ccncc3)C2)C1 (centres undefined)	-9.23
CC(=O)N1Cc2ccccc2CC2(CCCCN2C)C1 (centres undefined)	21.1

Compound	cytotoxicity at 70.5 h [%]
CN1CCCCC12Cc1ccccc1CN(C(=O)C1CCCC1)C2 (centres undefined)	-6.1
CS(=O)(=O)N1CC2(CCN(C3CCCCC3)C2)Cc2ccccc21 (centres undefined)	0.278
CS(=O)(=O)N1CC2(CCN(CC3CCCCC3)CC2)Cc2ccccc21	29.9
CS(=O)(=O)N1CC2(CCN(CC3CCCCC3)C2)Cc2ccccc21 (centres undefined)	-3.19
O=C1Nc2ccccc2CN(CC2CCCC2)C12CCNC2 (centres undefined)	-2.12
O=C(NC1CC1)c1cc(C2CC2)nc2onc(C3CCNCC3)c12	-4.47
COCCNC(=O)c1cc(C2CC2)nc2onc(C3CCNC3)c12 (centres undefined)	-7.31
Cc1cc(C(=O)NCC(F)(F)F)c2c(C3CCNCC3)noc2n1	25.3
O=C(c1ccc(Cl)cc1)N1CCC(N2CCOC2=O)CC1	-7.62
O=C(c1ccc(Cl)cc1)N1CCC(N2CCNC2=O)CC1	-3.41
O=C(c1cscn1)N1CCC2(COc3ncccc3S(=O)(=O)N2)C1 (centres undefined)	-3.8
CC(C)(C)C(=O)N1CCC2(CNS(=O)(=O)c3cnccc3O2)C1 (centres undefined)	41.2
CC(C)NC(=O)N1CCCCC1c1nnc2n1CCNC2 (centres undefined)	20.4
O=S1(=O)NCC2(CCCN(Cc3cccnc3)C2)Oc2ncccc21 (centres undefined)	26.5
CN1CCC2(CC1)Cc1ccccc1CN(C(=O)CN)C2	24.5
O=C1Nc2ccccc2CC12CCCN2Cc1ccc(C(F)(F)F)cc1 (centres undefined)	6.34
CCN(CC(=O)NC)C(=O)c1csc(Cc2ccccc2)n1	-2.3
O=C(NC1CCN(Cc2ccc(F)cc2)CC1)c1ccc2c(c1)CCC2	-6.88
Cc1cc(C(=O)N2CCNC(=O)CC2)c(C)n1CC(F)(F)F	23.5
CC(C)(C)c1noc(CCCC(=O)N2CCNC(=O)CC2)n1	-6.5

Compound	cytotoxicity at 70.5 h [%]
Cc1noc(CCCC(=O)N2CCNC(=O)C2)n1	-9.21
CC(C)C1C(=O)NCCN1C(=O)CCCc1nc(C(C)(C)C)no1 (centres undefined)	-3.75
CCOCCC(=O)NC(c1noc(C)n1)c1ccccc1F (centres undefined)	-7.31
Cc1nc(C(NS(=O)(=O)N(C)C)c2ccccc2F)no1 (centres undefined)	-2.92
COC(=O)C1CN(Cc2ccn(-c3ccc(F)cc3)n2)C[C@@H](C)O1 (some centres undefined)	21.2
NC(=O)NC1CCN(Cc2ccc(Br)c(F)c2)CC1	-5.43
CN(Cc1cc(Br)cn1C)C(=O)c1cccnc1	-8.21
N#Cc1ccc(SCCC(=O)O)cc1	-7.41
CSCCC(=O)N1CCN(CC(C)(C)O)CC1	-13.7
CCCNC(=O)c1cnc2n1CCCC2	-9.22
COC(=O)CC1CN(Cc2ccn(-c3ccc(F)cc3)n2)CCO1 (centres undefined)	-8.65
CCc1ccc(C(=O)NC2CCN(c3ccn(C)n3)C2)o1 (centres undefined)	-2.13
CCC(O)CN1CCN(C(=O)CCSC)CC1 (centres undefined)	0.756
CSCC(=O)N1CCN(CC(O)C(C)(C)C)CC1 (centres undefined)	-10.6
CCC1CN(CCCO)c2ccccc2O1 (centres undefined)	0.738
COC1CCCN(C(=O)NCc2ccc(C(=O)N(C)C(C)C)cc2)C1 (centres undefined)	25.2
CN(CCc1cccs1)C(=O)Nc1ccc2c(c1)C(=O)N(C)CC2	-7.01
COCCN(Cc1ccccn1)C(=O)Nc1cccnc1N1CCCC1	-12.3
O=C(COc1ccc(Br)cc1F)Nc1cn[nH]c1	15.8
